Paper PMC8624485, “Modeling, Synthesis, and Biological Evaluation of Potential Retinoid-X-Receptor (RXR) Selective Agonists: Analogs of 4-[1-(3,5,5,8,8-Pentamethyl-5,6,7,8-tetrahyro-2-naphthyl)ethynyl]benzoic Acid (Bexarotene) and 6-(Ethyl(4-isobutoxy-3-isopropylphenyl)amino)nicotinic Acid (NEt-4IB)” (International Journal of Molecular Sciences, 2021)
Like-named read-outs stand apart in the source and are kept apart here.

Experiments:
Assay type in all cases: cell-based
[1] = tested on: Saccharomyces cerevisiae; experiment: Saccharomyces cerevisiae toxicity assay; details: 3 h incubation, colony count vs DMSO only control; highest concentration tested 11 µg/µL
Experimental: These compounds were also assessed for mutagenicity and toxicity in Saccharomyces cerevisiae and the toxicity results are summarized in Table 1. No compound was mutagenic in this assay.
All compounds were tested for toxicity and mutagenicity using a Saccharomyces cerevisiae based assay as described previously. Toxicity was assessed in this assay (Table 1), comparing growth on plates to control treatments. Compounds were solubilized in DMSO at increasing concentrations and cells were incubated with the compounds for 3 h before plating on selective media or YPD to assess toxicity and mutagenicity. Cytotoxicity was assessed as described. Growth of colonies on the full nutrient YPD plate for each treatment was compared to the DMSO only control. The concentration at which 50% cell death (as indicated by colony count compared to DMSO only control) +/−10% cell death is reported as the 50% killing rate. The highest concentration tested was 11 µg/µL.

[2] = target: T1, human RARα (Homo sapiens, UniProt P10276); experiment: RARE-luciferase reporter assay in HEK293 cells; details: HEK293, all-trans-RA set to 100%
T1 construct: expressed in transfected cells; host or cells: HEK293 cells
T1 sequence (P10276 1-462): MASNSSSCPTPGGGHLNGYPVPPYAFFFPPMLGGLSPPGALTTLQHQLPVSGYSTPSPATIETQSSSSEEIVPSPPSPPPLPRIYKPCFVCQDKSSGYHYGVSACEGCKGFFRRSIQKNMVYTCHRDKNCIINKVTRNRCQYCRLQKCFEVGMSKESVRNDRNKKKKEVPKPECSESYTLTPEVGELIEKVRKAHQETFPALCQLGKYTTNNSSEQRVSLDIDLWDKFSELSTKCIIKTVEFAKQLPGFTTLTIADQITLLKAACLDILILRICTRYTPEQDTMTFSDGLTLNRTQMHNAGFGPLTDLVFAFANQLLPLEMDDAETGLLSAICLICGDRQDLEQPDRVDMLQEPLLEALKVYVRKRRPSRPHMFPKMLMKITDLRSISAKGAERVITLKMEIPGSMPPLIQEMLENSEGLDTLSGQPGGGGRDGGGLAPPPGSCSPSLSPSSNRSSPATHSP
Experimental: Human embryonic kidney cells (HEK293) were plated at 60,000 cells per well in a 24-well plate and maintained as described above. After 24 h, the cells were transfected with 250 ng pTK-DR5(X2)-Luc, 25 ng pCMX-human RARα, and 20 ng renilla utilizing 1.25 µL polyethylenimine (PEI) per well for 24 h. The sequence of the double DR5 RARE is: 5′-[…]-3′ (DR5 responsive elements underlined). The cells were treated with ethanol vehicle (0.1%), all-trans-retinoic acid (RA, the ligand for RAR), or the indicated rexinoid at a final concentration of 10 nM. After 24 h of treatment, the retinoid activity was measured as described above (dual luciferase assay). […] Three independent assays were conducted with triplicate samples for each treatment group. The value for RA was set to 100%. […]

[3] = target: T2, RXRα (Homo sapiens, UniProt P19793); experiment: UAS/Gal4 GFP reporter assay of RXRα activation in UAS-GFP x KMT2A-MLLT3 cells
T2 construct: expressed in transfected cells; host or cells: UAS-GFP x KMT2A-MLLT3 cells (retroviral transduction)
T2 sequence (P19793 227-458 limits assumed): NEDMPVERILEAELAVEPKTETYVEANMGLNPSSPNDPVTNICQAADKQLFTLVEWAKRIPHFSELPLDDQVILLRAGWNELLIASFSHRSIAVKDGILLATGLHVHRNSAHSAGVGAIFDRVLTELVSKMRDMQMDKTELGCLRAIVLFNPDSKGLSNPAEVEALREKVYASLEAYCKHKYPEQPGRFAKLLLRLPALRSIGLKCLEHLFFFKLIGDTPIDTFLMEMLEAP
Experimental: Cells were treated, and after 48 h, GFP measured by a ZE5 Flow Cytometer (Biorad).

[4] = target: T3, RXR-LXR heterodimer (LXR/LXRE) (Homo sapiens, UniProt P19793); experiment: LXRE-luciferase transactivation assay in HEK293 cells; details: for LXRE Activity (% of Bex): 100 nM compound alone, HEK293, bexarotene (1) set to 100%; for LHS Score (vs. Bex): LXRE Heterodimer Specificity: LXRE:RXRE activity ratio, compound 1 set to 1.0
T3 construct: expressed in transfected cells; host or cells: HEK293 cells
T3 sequence (P19793 1-462): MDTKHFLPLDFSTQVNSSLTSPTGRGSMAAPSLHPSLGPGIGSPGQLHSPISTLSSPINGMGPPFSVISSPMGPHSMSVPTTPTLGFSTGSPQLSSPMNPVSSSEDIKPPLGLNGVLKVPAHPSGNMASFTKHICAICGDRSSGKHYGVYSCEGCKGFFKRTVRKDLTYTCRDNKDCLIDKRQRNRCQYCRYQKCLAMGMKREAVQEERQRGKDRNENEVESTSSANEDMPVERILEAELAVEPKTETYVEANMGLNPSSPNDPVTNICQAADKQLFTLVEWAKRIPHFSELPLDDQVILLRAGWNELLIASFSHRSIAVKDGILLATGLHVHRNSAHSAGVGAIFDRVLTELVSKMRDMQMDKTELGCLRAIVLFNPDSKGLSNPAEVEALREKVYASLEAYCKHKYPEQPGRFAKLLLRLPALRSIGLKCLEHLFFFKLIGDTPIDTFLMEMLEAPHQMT
T3 sequence (Q13133 1-447 partner): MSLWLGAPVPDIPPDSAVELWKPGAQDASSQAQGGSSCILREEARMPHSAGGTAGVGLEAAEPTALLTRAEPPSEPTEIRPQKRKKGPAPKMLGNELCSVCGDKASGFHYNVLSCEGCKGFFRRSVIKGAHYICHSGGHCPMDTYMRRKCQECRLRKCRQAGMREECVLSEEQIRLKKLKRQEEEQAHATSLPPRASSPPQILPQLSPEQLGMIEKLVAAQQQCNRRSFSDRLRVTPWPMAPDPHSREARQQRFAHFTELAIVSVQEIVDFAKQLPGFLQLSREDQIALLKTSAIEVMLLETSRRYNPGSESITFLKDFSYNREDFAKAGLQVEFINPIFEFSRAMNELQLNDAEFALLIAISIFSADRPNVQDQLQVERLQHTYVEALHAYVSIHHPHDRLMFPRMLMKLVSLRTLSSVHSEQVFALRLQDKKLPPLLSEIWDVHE
Experimental: The activation from this natural LXRE in our system was tested in the presence of either 100 nM RXR agonists alone or in combination with 100 nM of both the RXR agonist and LXR agonist T0901317 (TO). […] The LXRE-mediated assays were performed using human embryonic cells (HEK293) seeded at a density of 60,000 cells/well in a 24-well plate and maintained in DMEM (Hyclone) supplemented with 10% fetal bovine serum, 100 µg/mL streptomycin, 100 U/mL penicillin (Invitrogen, Carlsbad, CA, USA) at 37 degrees Celsius, 5% CO2 for 24 h. The cells were co-transfected with 250 ng of an LXRE-luciferase reporter gene, 50 ng of pSG5-human RXRα, and 20 ng of renilla control plasmid. […] After 24 h post treatment, the cells were lysed and the transcriptional activity mediated by the LXRE was measured using the Dual Luciferase Assay System (Promega, Madison, WI) in a Sirius FB12 luminometer (Berthold Detection Systems, Pforzheim, Germany) according to the manufacturer’s protocol. The data are a compilation of between three and six independent assays with each treatment group dosed in triplicate for each independent assay. […] Bars on all graphs indicate standard deviation of the replicate experiments.
Cells were transfected for 24 h utilizing a liposome-mediated transfection protocol and then treated with the ethanol vehicle, or 100 nM of the indicated compound alone or in combination with 100 nM TO901317 (TO). […] (A) Human HEK-293 cells were transfected and treated as described in Figure 8.

[5] = RXRα activation, value (SD), Table 1 does not say whether GFP or Luc assay, read-out: EC50 (nM) +/−(SD)

Structure (SMILES)	Cyto-Toxicity (50% Cell Death) [1]	RARE Activity (%RA at 10 nM) [2]	EC50 [3, 5]	LXRE Activity (% of Bex) [4]	LXRE activity in combination with LXR ligand T0901317 (TO) ([4]; 100 nM compound + 100 nM T0901317, HEK293, compared with TO+1)	LHS Score (vs. Bex) [4]	EC50 [3]
C=C(c1ccc(C(=O)O)cc1)c1cc2c(cc1C)C(C)(C)CCC2(C)C [Compound 1, reference compound]	0.5 µg/µL						
CCN(c1ccc(OCC(C)C)c(C(C)C)c1)c1ccc(C(=O)O)cn1 [Compound 25, 6-(ethyl(4-isobutoxy-3-isopropylphenyl)amino)nicotinic acid]	none	2.9 %RA	274 nM	72.4 % of Bex			
C=C(c1ccc(C(=O)O)cc1)c1cc2c(cc1C)C(C)(C)CC2(C)C [Compound 26, reference compound]	none	3.0 %RA	70.1 nM	94.5 % of Bex	higher activity than TO+1	0.66	
C=C(c1ccc(C(=O)O)cc1)c1ccc2c(c1)C(C)(C)CCC2(C)C [Compound 27, 4-(1-(5,5,8,8-tetramethyl-5,6,7,8-tetrahydronaphthalen-2-yl)vinyl)benzoic acid, reference compound]	0.5 µg/µL	1.5 %RA		82.4 % of Bex		1.0	171 nM
CCN(c1ccc(OCC(C)C)c(C(C)C)c1)c1ncc(C(=O)O)cn1 [Compound 28, 2-(ethyl(4-isobutoxy-3-isopropylphenyl)amino)pyrimidine-5-carboxylic acid]	1 µg/µL	1.6 %RA	297 nM	77.7 % of Bex			
CCN(c1ccc(C(=O)O)cc1)c1ccc(OCC(C)C)c(C(C)C)c1 [Compound 30, 4-(ethyl(4-isobutoxy-3-isopropylphenyl)amino)benzoic acid]	0.08 µg/µL	1.1 %RA	397 nM	60.2 % of Bex			
C=C(c1ncc(C(=O)O)cn1)c1cc2c(cc1C)C(C)(C)CC2(C)C [Compound 32, 2-(1-(1,1,3,3,6-pentamethyl-2,3-dihydro-1H-inden-5-yl)vinyl)pyrimidine-5-carboxylic Acid]	none	12.9 %RA	34.4 nM	46.0 % of Bex		0.38	
Cc1cc2c(cc1C1(c3ncc(C(=O)O)cn3)CC1)C(C)(C)CC2(C)C [Compound 33, 2-(1-(1,1,3,3,6-pentamethyl-2,3-dihydro-1H-inden-5-yl)cyclopropyl)pyrimidine-5-carboxylic Acid]	none	5.9 %RA	17 nM	50.9 % of Bex		0.38	
C=C(c1ccc2c(c1)C(C)(C)CCC2(C)C)c1ncc(C(=O)O)cn1 [Compound 34, 2-(1-(5,5,8,8-tetramethyl-5,6,7,8-tetrahydronaphthalen-2-yl)vinyl)pyrimidine-5-carboxylic acid]	none	10.3 %RA	56.2 nM	77.6 % of Bex		0.70	
CC1(C)CCC(C)(C)c2cc(C3(c4ncc(C(=O)O)cn4)CC3)ccc21 [Compound 35, 2-(1-(5,5,8,8-tetramethyl-5,6,7,8-tetrahydronaphthalen-2-yl)cyclopropyl)pyrimidine-5-carboxylic acid]	none	5.1 %RA	1.3 nM	60.6 % of Bex			
C=C(c1ccc(C(=O)O)c(F)c1)c1ccc2c(c1)C(C)(C)CCC2(C)C [Compound 36, 2-fluoro-4-(1-(5,5,8,8-tetramethyl-5,6,7,8-tetrahydronaphthalen-2-yl)vinyl)benzoic Acid]	0.08 µg/µL	1.4 %RA	375 nM	85.2 % of Bex			
C=C(c1ccc(C(=O)O)c(O)c1)c1cc2c(cc1C)C(C)(C)CCC2(C)C [Compound 37a, 2-Hydroxy-4-(1-(3,5,5,8,8-pentamethyl-5,6,7,8-tetrahydronaphthalen-2-yl)vinyl)benzoic acid]	1 µg/µL	2.9 %RA	24.2 nM	91.1 % of Bex		0.45	
C=C(c1ccc(C(=O)O)c(O)c1)c1ccc2c(c1)C(C)(C)CCC2(C)C [Compound 37b, 2-Hydroxy-4-(1-(5,5,8,8-tetramethyl-5,6,7,8-tetrahydronaphthalen-2-yl)vinyl)benzoic Acid]	0.5 µg/µL	5.2 %RA	413 nM	69.1 % of Bex		0.91	
